Where a name gives a salt, the structure may show the parent alone.
Assay: in vitro
Settings: human, hek293t cells

For O=C(CCl)N1CCn2c(cc3ccccc32)C1 [5-A20, 2-chloro-1-{1H,2H,3H,4H-pyrazino[1,2-a]indol-2-yl}ethan-1-one], the viability at 48 h, 25 µM was 0.499%.
CC(Cl)C(=O)NC(c1ccccc1)c1ccccc1 (centres unmarked) [5-A21, 2-chloro-N-(diphenylmethyl)propanamide] gave a viability at 48 h, 25 µM of 85.8%.
Compound Cn1cc(NC(=O)CCl)c(C(=O)NC2CCC2)n1 [5-A22, 4-(2-chloroacetamido)-N-cyclobutyl-1-methyl-1H-pyrazole-3-carboxamide] has a viability at 48 h, 25 µM of 2.84%.
For C[C@H]1CN(C(=O)CCl)Cc2cccn21 [5-B03, 2-chloro-1-[(4S)-4-methyl-1H,2H,3H,4H-pyrrolo[1,2-a]pyrazin-2-yl]ethan-1-one], the viability at 48 h, 25 µM was 0.688%.
For O=C(CCl)Nc1c(Cl)cccc1C(F)(F)F [5-B04, 2-chloro-N-[2-chloro-6-(trifluoromethyl)phenyl]acetamide], the viability at 48 h, 25 µM was 1.62%.
With C=CCN(Cc1cccs1)C(=O)CCl [5-B06, 2-chloro-N-(prop-2-en-1-yl)-N-[(thiophen-2-yl)methyl]acetamide] the viability at 48 h, 25 µM was 0.0461%.
COCc1nc(C2CCCCCN2C(=O)CCl)no1 (centres unmarked) [5-B07, 2-chloro-1-{2-[5-(methoxymethyl)-1,2,4-oxadiazol-3-yl]azepan-1-yl}ethan-1-one] gave a viability at 48 h, 25 µM of 1.24%.
CCN(C(=O)CCl)c1cccc2ccccc12 [5-B08, 2-chloro-N-ethyl-N-(naphthalen-1-yl)acetamide] gave a viability at 48 h, 25 µM of 0.156%.
CC(Cl)C(=O)NCc1ccco1 (centres unmarked) [5-B09, 2-chloro-N-[(furan-2-yl)methyl]propanamide] gave a viability at 48 h, 25 µM of 96.6%.
With CC(Cl)C(=O)Nc1cccc(C#N)c1 (centres unmarked) [5-B10, 2-chloro-N-(3-cyanophenyl)propanamide] the viability at 48 h, 25 µM was 77.3%.
CCc1nocc1CN(C)C(=O)CCl [5-B11, 2-chloro-N-[(3-ethyl-1,2-oxazol-4-yl)methyl]-N-methylacetamide] showed a viability at 48 h, 25 µM of 1.49%.
COC(=O)c1ccccc1NC(=O)CCl [5-B12, methyl 2-(2-chloroacetamido)benzoate] gave a viability at 48 h, 25 µM of 77.7%.
Cc1cc(Cl)ccc1CN1CCN(C(=O)C(C)Cl)CC1 (centres unmarked) [5-B13, 2-chloro-1-{4-[(4-chloro-2-methylphenyl)methyl]piperazin-1-yl}propan-1-one] gave a viability at 48 h, 25 µM of 94.8%.
O=C(CCl)Nc1ccccn1 [5-B14, 2-chloro-N-(pyridin-2-yl)acetamide hydrochloride] showed a viability at 48 h, 25 µM of 73.1%.
O=C(CCl)N(Cc1ccoc1)C1CCCCC1 [5-B15, 2-chloro-N-cyclohexyl-N-[(furan-3-yl)methyl]acetamide] gave a viability at 48 h, 25 µM of 0.638%.
O=C(CCl)Nc1c(Cl)cc(Cl)cc1Cl [5-B16, 2-chloro-N-(2,4,6-trichlorophenyl)acetamide] showed a viability at 48 h, 25 µM of 123%.
With CC(Cl)C(=O)N(Cc1nnc(-c2ccccc2Cl)o1)C1CC1 (centres unmarked) [5-B17, 2-chloro-N-{[5-(2-chlorophenyl)-1,3,4-oxadiazol-2-yl]methyl}-N-cyclopropylpropanamide] the viability at 48 h, 25 µM was 134%.
Work on CC(Cl)C(=O)Nc1cccc(CSc2ccccn2)c1 (centres unmarked) [5-B18, 2-chloro-N-{3-[(pyridin-2-ylsulfanyl)methyl]phenyl}propanamide] yielded a viability at 48 h, 25 µM of 119%.
Compound CC(Cl)C(=O)NC1CC(C)N(c2ccccc2)C1=O (centres unmarked) [5-B19, 2-chloro-N-(5-methyl-2-oxo-1-phenylpyrrolidin-3-yl)propanamide] has a viability at 48 h, 25 µM of 112%.
In the case of CC(Cl)C(=O)Nc1sc2c(c1C#N)CCCCC2 (centres unmarked) [5-B20, 2-chloro-N-{3-cyano-4H,5H,6H,7H,8H-cyclohepta[b]thiophen-2-yl}propanamide], the viability at 48 h, 25 µM is reported as 60%.
Compound CC1CN(Cc2ccccc2)CC(C)N(C(=O)C(C)Cl)C1 (centres unmarked) [5-B21, 1-(4-benzyl-2,6-dimethyl-1,4-diazepan-1-yl)-2-chloropropan-1-one] has a viability at 48 h, 25 µM of 122%.
In the case of CC(Cl)C(=O)N(C)Cc1ncc(C2CC2)o1 (centres unmarked) [5-B22, 2-chloro-N-[(5-cyclopropyl-1,3-oxazol-2-yl)methyl]-N-methylpropanamide], the viability at 48 h, 25 µM is reported as 66.9%.
With NC(=O)CCN(C(=O)CCl)c1ccc(F)cc1 [5-C03, 3-[2-chloro-N-(4-fluorophenyl)acetamido]propanamide] the viability at 48 h, 25 µM was 1.62%.
